# Experimental data as given in patent US20090123940A1, “MOLECULES INVOLVED IN SYNAPTOGENESIS AND USES THEREFOR” (THE JOHNS HOPKINS UNIVERSITY, priority 2007, published 2009).
# Ends that are not written are not given here.
# What was measured:
# [1] = test system: GluR1; assay: Immunocytochemical staining of surface and internalized GluR1 in cultured hippocampal neurons; type: cell-based; details: 50 μM DFB added 5 min before DHPG stimulation
# Protocol: Immunocytochemical staining. Immunocytochemical staining of heterologous cells was performed as described (Xu et al., supra). For PMA-stimulation experiments, PMA (Sigma Cat #: P8139) at (150 nM) was added 90 minutes prior to live staining. Images were viewed and captured using Nikon E800 epifluorescence microscope fitted with a Princeton Instruments CCD camera. For live staining, neurons cultured on coverslips were incubated at 10° C. with the appropriate primary antibodies at the indicated dilutions in conditioned culture medium for 20 min. They were then washed with PBS and fixed with 4% paraformaldehyde/4% sucrose in PBS for 20 min at room temperature. Cells were permeablized with 0.2% Triton X-100 in PBS for 5 min and then blocked in 10% normal goat serum in PBS for 1 hr at room temperature. If intracellular proteins were of interest, coverslips were then incubated with antibody diluted in 10% normal goat serum for 1 hr at room temperature or overnight at 4° C. Coverslips were washed with PBS and incubated with secondary antibody conjugated to Alexa488 and Alexa555 (1:500 in 10% normal goat serum, Molecular Probes Eugene, Oreg.). Coverslips were mounted using the Prolong Antifade Kit (Molecular Probes, Eugene, Oreg.). For immunocytochemistry studies, mGluR1/5 were activated using the selective agonist (S)-DHPG (Tocris Cat.# 0805) with mGluR5 allosteric potentiator DFB (Tocris Cat.#1625). Neurons were incubated with DFB (50 μM) for 5 min and then DHPG (50 μM) for an additional 5 min in neuronal incubation medium and then transferred into the original incubation medium. […] Cells were incubated at 37° C. to allow endocytosis. At indicated time points, cells were incubated with N-terminal GluR1 mouse antibody (JH 4093; 0.2 μg/100 μl; kind gift from T. […] (to block endocytosis during staining). Cells were then processed for immunofluorescent staining as described above. An acid strip protocol was employed to measure endocytosed antibody labeled GluR1 (Snyder et al., 2001). Neurons were washed with progressively cooler NIM to slow basal endocytosis. Cells were then live labeled at 10° C. with GluR1 N-terminal antibody (0.2 μg/100 μL JH4094) antibody in NIM for 20 min. After washing unbound excess antibody, cells were incubated sequentially with DFB, DHPG, and original incubation medium at 37° C., as described above. After appropriate incubation times, cells were washed with 4° C. TBS. […] Neurons were then washed with 4° C. TBS followed by processing for immunofluorescent staining as described above. All neurons were viewed and captured using UltraVIEW spinning disk confocal microscope (PerkinElmer Life Sciences, Wellesley, Mass., USA) with a Nikon Eclipse TE 200 microscope and a 63× objective (Nikon, Melville, N.Y.). Images were acquired and saved as Tiff files with a dynamic range of 65536 grey levels (16-bit binary). Image analysis was performed using Metamorph imaging software (Universal Imaging, Downingtown, Pa.). For quantification of the punctate structures (e.g. GluR1), images were thresholded by grey value to differentiate single puncta. Segments of dendrites were selected and number of puncta was calculated per […] of length dendrite. Figures show ratios of calculated mean densities (number of puncta per unit length) from treated/control. Error bars were calculated using SEM and Gaussian error propagation. n=number of measured dendrites. Significance was determined by paired Student's T-test.
# [2] = test system: Purkinje cells cultured from embryonic mouse cerebellum; assay: LTD of glutamate-evoked inward current in cultured Purkinje cells (glutamate test pulses paired with depolarizing steps); type: cell-based; details: t=40 min; TAPI-2 10 μM, GM6001 1 μM, GM6001 control compound 1 μM; n=7
# Protocol: (§1) Recording and Ca^2+ imaging in cerebellar cultures. Cultures of embryonic mouse cerebellum were prepared as previously described and recordings were performed according to our previously published method (Leitges et al., Neuron 44:585-94, 2004). […]. Test pulses were delivered using negative current pulses (300-700 nA, 30-80 msec duration). LTD-inducing pairing stimuli consisted of six, 3-s-long depolarizations to 0 mV, each delivered together with a test pulse of glutamate.
# (§2) Membrane currents were recorded with an Axopatch 200A amplifier, and digitized at 10 kHz for exogenous glutamate responses and 20 kHz for mEPSCs. Signals were lowpass filtered at 5 kHz (1 kHz for mEPSCs) and acquired using Axograph X software (Axograph Scientific, Sydney, Australia). Recordings in which Rinput or Rseries varied by more than 10% were excluded from the analysis. For analysis of mEPSCs, Axograph X mini analysis software was used. This detected events based on closeness of fit of the mEPSC to a sliding template. Events smaller than − ? 4 pA were discarded. A separate template was created for each recording by averaging 30 of its most unambiguous mEPSCs as selected by eye.
# Other studies have shown that LTD in Purkinje cells cultured from embryonic mouse cerebellum requires activation of mGluR1, and is expressed postsynaptically as a reduction in surface AMPA receptors (Chung et al., Science 300:1751-5, 2003; Leitges et al., Neuron 44:585-94, 2004; Linden, PNAS 98:14066-71, 2001; Matsuda et al., EMBO J. 19:2765-74, 2000; Steinberg et al., Neuron 49:845-60, 2006; Wang and Linden, Neuron 25:635-47, 2000). Here, LTD was examined using a purely postsynaptic model in which iontophoretic test pulses of glutamate are applied to voltage-clamped Purkinje cells in culture. Following a baseline recording period, LTD was induced by pairing six 3 sec long depolarizing steps to 0 mV with six glutamate test pulses. When test pulses were resumed after pairing, LTD of the glutamate-evoked inward current was evident (52±9.0% of baseline at t=40 min, n=7 cells, FIG. 6A). […]
# [3] = test system: cultured cerebellar Purkinje cells; assay: Basal electrophysiological properties and Ca2+ imaging in cultured cerebellar Purkinje cells; type: cell-based, mouse; details: TAPI-2 10 μM; GM6001 1 μM; GM6001 control 1 μM; mean ± SEM
# Protocol: as §1, §2
# Bis-Fura-2 ratio imaging of intracellular free Ca^2+ in the dendritic shafts of cultured Purkinje cells was accomplished by measuring the background corrected fluorescence ratio at 340 and 380 nm excitation using a cooled CCD camera system. In these experiments, EGTA was removed from the internal saline and replaced with 100 μM bis-Fura-2.
# [4] = target: T1, Narp (Rattus norvegicus, UniProt P97738); assay: In vitro binding (GST pull down) with myc-Narp
# T1 construct: GST-tagged GluR1-12mer (GST-G1-12mer) and myc-tagged full length Narp; made in house; host or cells: 293T cells (myc-Narp, cleared lysate); E. coli (GST fusions, pGEX-4T-2)
# T1 sequence (P97738 15-432): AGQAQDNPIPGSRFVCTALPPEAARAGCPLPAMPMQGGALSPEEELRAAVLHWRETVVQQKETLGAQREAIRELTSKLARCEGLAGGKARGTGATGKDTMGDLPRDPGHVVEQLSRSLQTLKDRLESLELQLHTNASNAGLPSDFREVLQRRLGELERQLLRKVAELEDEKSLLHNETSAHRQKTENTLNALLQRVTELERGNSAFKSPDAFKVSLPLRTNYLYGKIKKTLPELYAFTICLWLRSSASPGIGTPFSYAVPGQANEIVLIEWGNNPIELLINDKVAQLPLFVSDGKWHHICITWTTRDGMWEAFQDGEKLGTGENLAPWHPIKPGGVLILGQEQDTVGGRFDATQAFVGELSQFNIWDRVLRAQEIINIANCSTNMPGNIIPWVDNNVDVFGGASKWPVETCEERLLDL
# Protocol: In Vitro Binding. Polynucleotides encoding NAR fragments were subcloned into pGEX-4T-2 vector (Amersham) in the EcoRI and SalI sites. The constructs were confirmed by restriction enzyme digestion, DNA sequencing and fusion protein expression. GST-fusion proteins were purified by bacterial inoculation of one clone containing GST-fusion protein plasmid into 5 mL of LB liquid medium and cultured at 37 C overnight. Cultured bacteria was transferred into 400 mL of LB liquid medium and cultured at 30 C for 3 hours. Protein expression was induced with 5 mM IPTG and the bacteria were cultured at 30 C for another 2 hours. A bacterial pellet was collected and resuspended in 10 mL of lysis buffer (pH 7.4 PBS containing 10 mM sodium pyrophosphate, 1 mM sodium orthovanadate, 1% triton and 0.1% PMSF), sonicated for 10 seconds, 3 times at 4 C. Debris was pelleted with centrifugation at 12,000 rpm at 4 C for 10 minutes. The supernatant was incubated with Glutathione Sepharose 4B beads (Pharmacia) with agitation at 4 C for 2 hours. Beads were washed with lysis buffer+1% triton+0.1% PMSF twice; lysis buffer+PMSF twice; PBS+0.5M NaCl once; and PBS twice. The fusion protein bound beads were then used in the in vitro binding assay. Purified Narp protein preparation was accomplished by splitting 293T cells is into 100 mm culture dishes at the density of 5×10^5 cells/mL. […]
# [5] = test system: NPR cleavage at Site A (TACE); assay: NPR cleavage assay in transfected HEK293T cells; type: cell-based, rat; details: TAPI-2 50 μM; GM6001 25 μM
# Protocol: Cleavage Assay HEK293T cells were plated in OptiMEM (Invitrogen, Carlsbad, Calif.) containing 5% FBS onto 6-well dishes at a density of 4×10^5 cells/mL (2 mL/well) 1 day before transfection. Cells were transfected with NPR in pRK5 using LipofectAMINE 2000 (Invitrogen, Carlsbad Calif.). After 24 hr the medium was replaced with serum-free OptiMEM. […] Samples from each well were obtained at specific time points, immediately placed on ice, centrifuged at 15,000 g to remove cell debris, and then treated with 2% β-mercaptoethanol containing loading buffer. At the end of the time course, the cells were lysed with RIPA buffer, centrifuged to remove cell debris, and treated with 2% β-mercaptoethanol in loading buffer. Samples (20 μL of medium or lysate diluted to 1/5) were run on SDS-PAGE gels and analyzed by Western blotting.
Molecule,glutamate-evoked inward current after LTD induction [2],DHPG-evoked (dendritic Ca2+ transient) [3],Depol-evoked (dendritic Ca2+ transient) [3],Resting Ca2+ [3],mEPSC 10-90% rise [3],mEPSC 50% decay [3],mEPSC amp [3],also measured
"Fc1cccc(C=NN=Cc2cccc(F)c2)c1 [DFB, 3,3′-difluorobenzaldazine]",–,–,–,–,–,–,–,consistency of the DHPG-evoked response [1]: increased the consistency of the DHPG-evoked response
CNC(=O)C(Cc1c[nH]c2ccccc12)NC(=O)C(CC(C)C)NC(=O)OC(C)(C)C (stereo not drawn) [GM6001 control compound],48±9.8 % of baseline,277 ± 42 nM,526 ± 55 nM,100 ± 25 nM,1.6 ± 0.3 msec,7.6 ± 0.7 ms,26 ± 6 pA,–
"GST-G1-12mer: bacteria GST-tagged GluR1-12mer (LRRQRIDISRRG; also: GST tag, end not given here)",–,–,–,–,–,–,–,pull down of myc-tagged full length Narp ([4]; GST fusion proteins): pulls down Narp
CNC(=O)[C@H](Cc1c[nH]c2ccccc12)NC(=O)[C@@H](CC(=O)NO)CC(C)C [GM6001],106±8.4 % of baseline,268 ± 39 nM,557 ± 65 nM,123 ± 27 nM,2.0 ± 0.3 msec,8.0 ± 0.6 ms,25 ± 6 pA,PMA-stimulated cleavage at Site A / secretion of LFC-NPR into the medium [5]: inhibited
"G1-12mer peptide: synthetic 12 amino acid GluR1 NAR1 sequence, Narp binding motif LRRQRIDISRRG (SEQ ID NO:24) (listed as Homo sapiens)",–,–,–,–,–,–,–,in vitro binding between GST-G1-NarI and Narp ([4]; synthetic peptide added): blocked
